Reference: EPA's ToxValDB 9.5 (doi:10.2903/j.efsa.2010.1555)

Key:
[1] = test system: Coturnix coturnix; conditions: acute; oral; diet; mortality
[2] = test system: Rattus norvegicus
[3] = test system: Apis mellifera; conditions: acute; oral; unspecified; mortality
[4] = test system: Anas platyrhynchos
[5] = test system: Tagia sp.; conditions: acute; duration: 14 days; mortality
[6] = test system: Oncorhynchus mykiss
[7] = test system: Coturnix japonica; conditions: reproduction developmental
[8] = test system: Canidae; conditions: chronic; duration: 1 years; oral; Dog Other
[9] = test system: Daphnia magna; conditions: chronic/long-term; duration: 21 days; reproduction
[10] = test system: Colinus virginianus
[11] = reproduction developmental, body weight

CCC([O-])=C1C(=O)CC(C(=O)[O-])CC1=O.[Ca+2] (stereo unspecified) [Prohexadione-calcium]
LC50 [1]: > 1210 mg/kg-day | LD50 ([2]; acute, oral, mortality): > 5000 mg/kg | NOAEL [2, 11]: 35 mg/kg-day | NOEL [2, 11]: 35 mg/kg-day | LD50 [3]: > 100 µg/piece | LD50 ([4]; acute, oral, unspecified, mortality): > 2000 mg/kg | NOEC ([4]; reproductive): 116 mg/kg-day | LC50 ([4]; short-term, oral, feed, mortality): > 1350 mg/kg-day | LC50 [5]: > 1000 mg/kg | LC50 ([6]; acute, duration: 96 hours, mortality): > 100 µg/mL | NOEC ([6]; chronic/long-term, duration: 28 days, growth): 100 mg/L | NOEC [7]: 126 mg/kg-day | NOAEL [8]: 20 mg/kg-day | NOEC [9]: 100 mg/L | LD50 ([10]; acute, oral, mortality): > 2000 mg/kg | NOEC ([10]; reproduction developmental): 48.8 mg/kg-day
